From patent US5561228A, “Macrocyclic immunomodulators” (Abbott Laboratories, priority 1994, dated 1996)

System: human mixed lymphocyte reaction (MLR)
Experiment: human mixed lymphocyte reaction (MLR) assay
Type: cell-based
Details: immunosuppressant activity, Table 1
Description: The immunosuppressant activity of the compounds of the present invention was determined using the human mixed lymphocyte reaction (MLR) assay described by Kino, T. et al. in Transplantation Proceedings, XIX(5):36-39,Suppl. 6 (1987).

Row | IC50 [µM] | Structure (SMILES)
1 | < 1 | CC[C@@H]1/C=C(\C)C[C@H](C)C[C@H](OC)[C@H]2O[C@@](O)(C(=O)C(=O)N3CCCC[C@H]3C(=O)O[C@H](/C(C)=C/[C@@H](CC=NOCC(=O)O)CCC#N)[C@H](C)[C@@H](O)CC1=O)[C@H](C)C[C@@H]2OC [Example 421]
2 | < 1 | CC[C@@H]1/C=C(\C)C[C@H](C)C[C@H](OC)[C@H]2O[C@@](O)(C(=O)C(=O)N3CCCC[C@H]3C(=O)O[C@H](/C(C)=C/[C@@H](CC=NN(C)C)CCC#N)[C@H](C)[C@@H](O)CC1=O)[C@H](C)C[C@@H]2OC [Example 417]
3 | < 1 | CC[C@@H]1/C=C(\C)C[C@H](C)C[C@H](OC)[C@H]2O[C@@](O)(C(=O)C(=O)N3CCCC[C@H]3C(=O)O[C@H](/C(C)=C/[C@@H](CC=NO)CCC#N)[C@H](C)[C@@H](O)CC1=O)[C@H](C)C[C@@H]2OC [Example 419]
4 | < 1 | CC[C@@H]1/C=C(\C)C[C@H](C)C[C@H](OC)[C@H]2O[C@@](O)(C(=O)C(=O)N3CCCC[C@H]3C(=O)O[C@H](/C(C)=C/[C@@H](CCO)CCC#N)[C@H](C)[C@@H](O)CC1=O)[C@H](C)C[C@@H]2OC [Example 425]
